# Reference: patent US20100179118A1, “CYCLIC AMINOALKYLCARBOXAMIDE DERIVATIVE” (DAINIPPON SUMITOMO PHARMA CO., LTD., priority 2006, published 2010)
# Key:
# [1] = tested on: TMA (trimellitic anhydride) repetitive application dermatitis model; assay: Suppressive action on TMA (trimellitic anhydride) repetitive application dermatitis model; format: in vivo, mice; conditions: for inhibition in vivo at 20 mg/kg: Mus musculus, 8 h, oral twice (30 min before and 4 hr after induction), ear thickness vs solvent control, male BALB/c mice, read-out: right ear suppression (%) at 8 hr after final induction
# [2] = tested on: BN rat DNCB repetitive application dermatitis model; assay: Suppressive action on BN rat DNCB repetitive application dermatitis model; format: in vivo; conditions: dose 2 mg/kg, oral once a day; AUC of ear thickness increase vs solvent control; male BN rat
# Procedure: Suppressive Action on BN Rat DNCB Repetitive Application Dermatitis Model
# A 8-week-old male rat was sensitized by applying 30 μL of 1.5 wt % solution of dinitrochlorobenzene (DNCB) dissolved in acetone:olive oil=4:1 solution to the right ear on day 1 and 3 days later. Starting from one week thereafter, the same solution was consecutively applied to the right ear every other day in total of 6 times, whereby chronic dermatitis was induced in which the skin thickness increases with time. As for the level of dermatitis, the thickness was measured with a dial gauge thickness before application of the solution, and expressed by the difference from the measured thickness of the right ear immediately before induction on day 1 of the induction. The drug was suspended in 0.5 wt % tragacanth, and orally administered once a day immediately before induction on day 1 of the induction and after 24 hr value measurement the next day. The changes in the ear tumentia with time were monitored, and the area under the curve in a graph showing the values up to 48 hr after the final induction was calculated, from which the percent suppression relative to the area of the solvent control group was determined. As a comparison control compound, prednisolone, which is a steroid, was used.
Compound,inhibition in vivo at 20 mg/kg [1],suppression (%) at 48 hr after final induction [2],"right ear suppression (%) at 8 hr after final induction ([1]; mouse, in vivo, po, 80 mg/kg)"
"O=C(c1ccc(Cl)cc1)N1CCC(N(C(=O)CN2CCOCC2)C2CCCCC2)CC1 [Example 65, N-[1-(4-chlorobenzoyl)piperidin-4-yl]-N-cyclohexyl-2-(morpholin-4-yl)acetamide]",41%,20.5%,–
"O=C(O)c1cccc(N(C(=O)CN2CCCC2)C2CCN(C(=O)c3ccc(C(F)(F)F)cc3)CC2)c1 [Example 227, N-(3-carboxylphenyl)-2-(pyrrolidin-1-yl)-N-[1-(4-trifluoromethylbenzoyl)piperidin-4-yl]acetamide]",–,–,57.2%
"C[C@]12C=CC(=O)C=C1CC[C@@H]1[C@@H]2[C@@H](O)C[C@@]2(C)[C@H]1CC[C@]2(O)C(=O)CO [prednisolone, reference compound]",67.8%,44.0%,–
